# Measured values: patent US20060172945A1, “Human neutrophil alpha-defensin 4 inhibition of HIV-1” (priority 2005, published 2006)
# Entries after “also recorded” stand apart in the source; their conditions may differ. No end group written: not given here.
# Tested on: HIV-1 isolates IIIB (X4), BaL (R5), B703 (X4), NSI03 (R5) in PBMC
# Assay: Inhibition of HIV-1 replication in PBMC, HIV-1 p24 antigen-capture ELISA
# Assay type: cell-based
# Conditions: HIV-1 infected human PBMC in vitro, p24 at day 4; HNP4 compared with HNPs 1-3
# Method: Inhibition of HIV-1 in vitro by α-defensins 1-3 was first reported by Nakashima et al, 1993 [11], which has been confirmed by several recent reports.
# Cells infected with the HIV-1 virus were added to duplicate series of wells containing varying concentrations of test defensin in 200 ul complete culture medium, and fed after 48 hours with fresh defensin of appropriate quantities. Medium alone was used as the control. The level of HIV-1 replication was measured at day 4 after infection by HIV-1 p24 antigen-capture ELISA. Percent infection was determined as a function of HIV p24 released into the medium in sample wells versus in control wells.
substance,measurement,value
"HNP4: Human neutrophil α-defensin 4, 33 amino acid residues; amino acid residues 64-96 of defensin 4 (VCSCRLVFCRRTELRVGNCLIGGVSFTYCCTRV; ends and bridges not checked; cysteine pairing not given here; UniProt P12838 64-96, looked up, fragment)",Inhibition of HIV-1 (in words),significantly more effective inhibitor than HNPs 1-3; also recorded: significantly and unexpectedly stronger
